Like-named read-outs stand apart in the source and are kept apart here.
Legend:
[1] = biological target: T1, OCT2 (Homo sapiens, UniProt O15244); assay: in vitro; conditions: for inhibition at 3 min, 20 µM / inhibition at 3 min, 200 µM: pH 7.3, probe [14C]metformin, 1000 µM, metformin 1000 μM, net uptake HEK-OCT2 minus HEK-VC; for inhibition at 3 min, 20 µM: % Inhibition of OCT2-dependent MF uptake at 20 µM (mean ± SEM), test drug 20 µM; for inhibition at 3 min, 200 µM: % Inhibition of OCT2-dependent MF uptake at 200 µM (mean ± SEM), test drug 200 µM
T1 sequence (O15244 whole entry): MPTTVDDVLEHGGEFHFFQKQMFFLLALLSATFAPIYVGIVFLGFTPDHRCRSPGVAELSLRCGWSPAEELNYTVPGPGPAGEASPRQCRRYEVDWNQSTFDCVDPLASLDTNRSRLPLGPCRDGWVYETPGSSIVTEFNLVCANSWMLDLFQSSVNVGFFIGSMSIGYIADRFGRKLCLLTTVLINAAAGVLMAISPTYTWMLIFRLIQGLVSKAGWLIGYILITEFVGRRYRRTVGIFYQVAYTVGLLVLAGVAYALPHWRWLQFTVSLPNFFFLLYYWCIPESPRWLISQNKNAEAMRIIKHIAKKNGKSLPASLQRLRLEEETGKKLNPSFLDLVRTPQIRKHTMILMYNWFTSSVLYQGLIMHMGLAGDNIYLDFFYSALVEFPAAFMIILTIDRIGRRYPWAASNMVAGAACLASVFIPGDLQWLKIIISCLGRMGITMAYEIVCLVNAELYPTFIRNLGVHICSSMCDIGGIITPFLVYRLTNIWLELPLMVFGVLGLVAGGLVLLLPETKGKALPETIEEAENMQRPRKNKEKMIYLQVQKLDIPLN
Protocol: (§1) For the transport assays HEK cell lines stably transfected with human OCT2 (HEK-OCT2) or the vector only (HEK-VC) were used. The HEK-OCT2 cell line was established and characterized previously. HEK-OCT2 and HEK-VC cells were seeded in poly-D-lysine (Sigma Aldrich, Taufkirchen, Germany) coated 48-well-plates at a density of 1.2 x 10^5 cells/well. […] Uptake was stopped by washing the cells three times with ice-cold uptake buffer. Afterwards, cells were lysed with 5 mM Tris buffer (pH 7.3) containing 0.1% Triton X-100. The intracellular accumulation of radioactivity was determined by liquid scintillation counting (PerkinElmer, Rodgau-Jügesheim, Germany) and protein concentration of each lysate was measured with bicinchonic acid assay (BCA Protein Assay Kit, Thermo Fisher Scientific, Waltham, MA, USA). We performed two to eight experiments each on at least two separate days, i.e., n = 4–16.
Experimental half-maximal inhibitory concentrations (IC50 values) were measured as the substrate uptake in the presence of increasing concentrations of test drugs. These experiments were performed as described above (three experiments each on two separate days, i.e., n = 6). IC50 values were calculated with GraphPad Prism 5.0 (GraphPad Software, San Diego, CA, USA). IC50 was estimated by a sigmoidal inhibition model and was fit to the equation V = V 0 / (1 + (I / IC50 ) ^n ) by nonlinear regression. V is the net uptake in the presence of the inhibitor, V 0 is the net uptake in the absence of the inhibitor, I is the concentration of the inhibitor and n is the slope.

[2] = biological target: T1, OCT2; assay: Inhibition of OCT2-mediated [3H]MPP+ uptake in HEK-OCT2 cells; conditions: for inhibition at 3 min, 20 µM / inhibition at 3 min, 200 µM: pH 7.3, probe [3H]MPP+, 50 µM
Protocol: as §1

[3] = test drug 20 µM, MPP+ 50 μM, 3 min, net uptake HEK-OCT2 minus HEK-VC
[4] = test drug 200 µM, MPP+ 50 μM, 3 min, net uptake HEK-OCT2 minus HEK-VC

Row | Compound | % Inhibition of OCT2-dependent MF uptake at 200 µM (mean ± SEM) ([1]; human, pH 7.3) | % Inhibition of OCT2-dependent MPP+ uptake at 20 µM (mean ± SEM) [2, 3] | % Inhibition of OCT2-dependent MPP+ uptake at 200 µM (mean ± SEM) [2, 4] | % Inhibition of OCT2-dependent MF uptake at 20 µM (mean ± SEM) ([1]; human, pH 7.3) | other results
1 | CCC(=O)C(CC(C)N(C)C)(c1ccccc1)c1ccccc1 (centres unmarked) [Methadone] | 99.3 ± 0.3 | 8.9 ± 4.4% | 68.7 ± 3.8% |  | 
2 | C#C[C@]1(O)CC[C@H]2[C@@H]3CCC4=CC(=O)CC[C@@H]4[C@H]3CC[C@@]21C [Norethindrone] | 87.7 ± 6.1 | -29.4 ± 6.4% | 3.0 ± 3.3% | 41.0 ± 11.0 | 
3 | COc1ccc2c3c1O[C@H]1C[C@@H](O)C=C[C@@]31CCN(C)C2 [Galantamine] | 92.5 ± 1.2 | -11.7 ± 9.4% | 12.3 ± 7.0% | 51.5 ± 2.8 | 
4 | O=C1Nc2ccc(Cl)cc2C(c2ccccc2)=NC1O (centres unmarked) [Oxazepam] | 97.5 ± 0.5 |  |  |  | % Inhibition of OCT2-dependent MPP+ uptake at 20 µM (mean ± SEM) ([2]; human, pH 7.3): 37.6 ± 4.7; % Inhibition of OCT2-dependent MPP+ uptake at 200 µM (mean ± SEM) ([2]; human, pH 7.3): 44.6 ± 6.5
5 | CN[C@H]1CC[C@@H](c2ccc(Cl)c(Cl)c2)c2ccccc21 [Sertraline] | 100.5 ± 0.7 | 43.6 ± 2.9% | 96.1 ± 1.7% | 88.4 ± 2.1 | IC50 values, OCT2-mediated metformin transport (in words) ([1]; potent inhibitors, confirmed previous findings [19]-[21]): low micromolar range
6 | NC(=O)N1c2ccccc2C=Cc2ccccc21 [Carbamazepine] | 83.8 ± 1.2% | -51.4 ± 9.2% | -2.1 ± 4.4% | 0.2 ± 3.8% | 
7 | CO/N=C(\C(=O)N[C@@H]1C(=O)N2C(C(=O)O)=C(COC(N)=O)CS[C@H]12)c1ccco1 [Cefuroxime] | 50.3 ± 11.6% | -10.5 ± 7.0% | -30.8 ± 12.9% | 29.9 ± 9.7% | 
8 | CCOC(=O)[C@H](CCc1ccccc1)N[C@@H](C)C(=O)N1CCC[C@H]1C(=O)O [Enalapril] | 34.2 ± 4.5 | 7.1 ± 7.4% | 20.2 ± 5.6% | 7.5 ± 2.3 | 
9 | CCCCC1=NC2(CCCC2)C(=O)N1Cc1ccc(-c2ccccc2-c2nnn[nH]2)cc1 [Irbesartan] | -14.2 ± 17.8 | -18.9 ± 12.4% | -50.7 ± 14.1% | -16.2 ± 14.4 | 
10 | CC12CC3CC(C)(C1)CC(N)(C3)C2 [Memantine] | 93.9 ± 0.6 | 20.6 ± 8.6% | 54.0 ± 7.0% | 54.0 ± 2.1 | 
11 | O=C(CCCN1CCC(n2c(O)nc3ccccc32)CC1)c1ccc(F)cc1 [Benperidol] | 72.2 ± 2.7% | -21.5 ± 2.8% | 1.6 ± 8.3% | 58.7 ± 3.3% | 
12 | NCCCC[C@H](N[C@@H](CCc1ccccc1)C(=O)O)C(=O)N1CCC[C@H]1C(=O)O [Lisinopril] | 2.9 ± 9.0 | 16.0 ± 9.0% | 9.8 ± 11.8% | -10.3 ± 12.9 | 
13 | OCCN1CCN(CCCN2c3ccccc3C=Cc3ccccc32)CC1 [Opipramol] | 99.5 ± 0.7 | 14.0 ± 7.6% | 81.6 ± 3.9% |  | 
14 | Fc1ccc([C@@H]2CCNC[C@H]2COc2ccc3c(c2)OCO3)cc1 [Paroxetine] | 99.6 ± 1.9 | 15.5 ± 3.8% | 87.2 ± 3.6% | 80.6 ± 3.1 | 
15 | C[C@H](CS)C(=O)N1CCC[C@H]1C(=O)O [Captopril] | -59.0 ± 0.9% | 3.8 ± 5.7% | 10.2 ± 6.8% | -21.6 ± 19.5% | 
16 | OC(CNCC(O)C1CCc2cc(F)ccc2O1)C1CCc2cc(F)ccc2O1 (centres unmarked) [Nebivolol] | 75.2 ± 10.8 | -13.7 ± 13.3% | 43.2 ± 3.3% | 61.4 ± 10.4 | 
17 | CC1CCN(CCCC(=O)c2ccc(F)cc2)CC1 [Melperone] | 94.9 ± 4.2 | 8.6 ± 10.1% | 69.7 ± 3.8% | 75.0 ± 3.4 | 
18 | NC(=O)C1(N2CCCCC2)CCN(CCCC(=O)c2ccc(F)cc2)CC1 [Pipamperone] | 78.1 ± 2.2 | 12.0 ± 4.5% | 33.1 ± 3.4% | 33.9 ± 6.0 | 
19 | CN1CCN(C2=Nc3cc(Cl)ccc3Nc3ccccc32)CC1 [Clozapine] | 98.7 ± 0.7 | 43.4 ± 4.7% | 84.1 ± 2.5% | 71.4 ± 1.6 | 
20 | N[C@@H]1C[C@H]1c1ccccc1 (racemic) [Tranylcypromine] |  |  |  |  | % Inhibition of OCT2-dependent MF uptake at 20 µM (mean ± SEM) [1]: 39.0 ± 3.3; % Inhibition of OCT2-dependent MF uptake at 200 µM (mean ± SEM) [1]: 79.1 ± 2.9; % Inhibition of OCT2-dependent MPP+ uptake at 20 µM (mean ± SEM) [2]: 27.8 ± 5.6; % Inhibition of OCT2-dependent MPP+ uptake at 200 µM (mean ± SEM) [2]: 54.7 ± 3.1
21 | CN1CCN(CCCN2c3ccccc3Sc3ccccc32)CC1 [Perazine] | 92.0 ± 1.8 | 58.5 ± 2.8% | 65.9 ± 2.0% | 53.6 ± 3.6 | 
22 | CN1C(=O)C(O)N=C(c2ccccc2Cl)c2cc(Cl)ccc21 (centres unmarked) [Lormetazepam] | 92.4 ± 0.5 |  |  | 77.0 ± 0.6 | % Inhibition of OCT2-dependent MPP+ uptake at 20 µM (mean ± SEM) ([2]; human, pH 7.3): 47.8 ± 8.4; % Inhibition of OCT2-dependent MPP+ uptake at 200 µM (mean ± SEM) ([2]; human, pH 7.3): 69.8 ± 5.3
23 | CC(=O)N[C@@H](CS)C(=O)O [Acetylcysteine] | 11.0 ± 9.4% | -35.6 ± 7.7% | -36.0 ± 3.2% | 13.2 ± 6.3% | 
24 | O=C1[C@H](CC[C@H](O)c2ccc(F)cc2)[C@@H](c2ccc(O)cc2)N1c1ccc(F)cc1 [Ezetimibe] |  |  |  |  | inhibition at 3 min, 20 µM ([1]; human): -6.8 ± 9.7%; inhibition at 3 min, 200 µM ([1]; human): 0.2 ± 10%; inhibition at 3 min, 20 µM ([2]; human): -12.6 ± 12.4%; inhibition at 3 min, 200 µM ([2]; human): -13.2 ± 11.5%
25 | O=C(NCCN1CCOCC1)c1ccc(Cl)cc1 [Moclobemide] | 48.9 ± 2.1 | -38.7 ± 8.5% | -16.1 ± 17.7% | 4.3 ± 2.8 | 
26 | COCCc1ccc(OCC(O)CNC(C)C)cc1 (centres unmarked) [Metoprolol] | 88.2 ± 1.7 | 23.2 ± 6.5% | 27.5 ± 6.9% | 50.5 ± 5.9 | 
27 | Cc1ccc(-c2ncc(Cl)cc2-c2ccc(S(C)(=O)=O)cc2)cn1 [Etoricoxib] | 99.2 ± 2.7 | 2.3 ± 4.0% | 72.4 ± 2.2% | 64.1 ± 6.8 | 
28 | Oc1ncnc2[nH]ncc12 [Allopurinol] |  |  |  |  | inhibition at 3 min, 20 µM ([1]; human): 24.8 ± 6.9%; inhibition at 3 min, 200 µM ([1]; human): 26.8 ± 3.9%; inhibition at 3 min, 20 µM ([2]; human): 35.6 ± 7.5%; inhibition at 3 min, 200 µM ([2]; human): 52.7 ± 8.8%

Source: article PMC4556614 (PLoS ONE, 2015)
